Experimental findings from patent US4517003A, “N-acyl phosphoric triamide urease inhibitors and urease inhibited urea based fertilizer compositions” (Allied Corporation, priority 1983, dated 1985) are described below.

Read-outs that look alike come from different tables or passages of the source.

Data set [1] has as its target T1, jack bean urease (Sigma, Type IX) (Canavalia ensiformis, UniProt P07374).
T1 construct: purchased Sigma Type IX
As to the kind of experiment: Jack bean urease inhibition (modified Bremner procedure, homogeneous solution). The class given is biochemical. Particulars: for inhibition at 0.01 µM: read-out: % Inhibition at Specific Inhibitor Concentrations 10^-8 M. The protocol: Efficacy tests were also conducted with jack bean urease. The procedure of Bremner (see L. A. Douglas and J. M. Bremner, Soil Biol. Biochem., 3, 859-62 (1970) and references therein) was modified by replacing the soil as the source of urease with commercial purified jack bean urease (Sigma, Type IX). The incubation then proceeds in homogeneous solution.
The prior art compound selected for comparative testing was N-(diaminophosphinyl)-p-chlorobenzamide, and the compounds selected for use in the composition of this invention are N-(diaminophosphinyl)-2,2,2-trichloroacetamide, N-(diaminophosphinyl)-2,2-dichloroacetamide, and N-(diaminophosphinyl)-2-chloroacetamide The test procedure employed was identical to that used in Example VII.

A further data set has as its system soil nitrification. Kind of data set: Nitrification inhibition efficacy test in soil. The conditions noted are these: Cazenovia silt loam pH 7.3, 14 days at 25° C.; for % Inhibition at 40 ug per gram of soil, t14 (Inhibition of Soil Nitrification): diammonium phosphate applied after 14 days (t14); for % Inhibition at 40 ug per gram of soil, t0 (Inhibition of Soil Nitrification): diammonium phosphate applied simultaneously (t0). The protocol: Efficacy tests were conducted to evaluate the efficacy of certain representative phosphoric triamide compounds as nitrification inhibitors. All compounds were evaluated in Cazenovia silt loam soil (pH 7.3). The evaluations consisted of applying either simultaneously (to) or after 14 days (t14) a solution of 6.00 mg (300 ug/g soil) of diammonium phosphate in 1 mL of water to triplicate 20 g samples of air dry soil contained in 250 mL square glass bottles that had been treated with a solution of either 0 or 0.800 mg (40 ug/g soil) of the test compound in 5 mL of water. Each bottle was capped with perforated aluminum foil, incubated for 14 days at 25° C. after diammonium phosphate application, and then extracted with 100 mL of 2M potassium chloride containing 0.5 mg (5 mg/L) of phenylmercuric acetate. Each extract was allowed to settle, and an aliquot was frozen and then analyzed for nitrate using an autoanalyzer. The percent inhibition obtained during the incubation was calculated by the formula: [formula] where A is the nitrate recovered from unincubated soil before diammonium phosphate addition; B is nitrate recovered from uninhibited soil; and C is nitrate recovered from inhibited soil.
The compounds selected for use in the composition of this invention are N-(diaminophosphinyl)-2,2,2-trichloroacetamide, N-(diaminophosphinyl)-2,2-dichloroacetamide, and N-(diaminophosphinyl)-2-chloroacetamide.

A further data set relates to soil urease. Kind of data set: Urease inhibition efficacy test in soil. The class given is biochemical. The conditions noted are these: Cazenovia silt loam, pH 7.2, incubated at 25° C. for three days, triplicate. The protocol: Efficacy tests were conducted to evaluate the efficacy of certain representative phosphoric triamide compounds as urease inhibitors. The inhibition tests were run in a New York soil (Cazenovia silt loam, pH 7.2). […] The bottle was capped with perforated aluminum foil and incubated at 25° C. for three days prior to extraction with 100 mL of a 2M KCl solution containing 0.5 mg of phenylmercuric acetate. The extracts were then analyzed for remaining urea using an autoanalyzer. Percent inhibition was calculated as [formula] Where A is urea recovered from unincubated sample (urea added to soil and immediately extracted); B is urea recovered from inhibited sample; and C is urea recovered from the control (uninhibited sample).

Data set [2] in a line: Solubility in ice-cold water (observation during work-up). The class given is physicochemical. The protocol: The titled compound was prepared in accordance with the procedure of Example I. Using 2-chloroacetamide (7.02 g, 75 mmol), phosphorus pentachloride (15.6 g, 75 mmol) and formic acid (2.9 mL, […]), were reacted to form 16.0 g of N-(dichlorophosphinyl)-2-chloroacetamide, which was reacted with anhydrous ammonia in ether to form N-(diaminophosphinyl)-2-chloroacetamide.

Where [3] appears, read: Table II, 10^-6 M inhibitor, jack bean urease, read-out: % Inhibition at Specific Inhibitor Concentration 10^-6 M.
Setting [4] is: Table II, 10^-7 M inhibitor, jack bean urease, read-out: % Inhibition at Specific Inhibitor Concentration 10^-7 M.
Where [5] appears, read: Table III (comparison with prior art), 10^-7 M inhibitor, jack bean urease, read-out: % Inhibition at Specific Inhibitor Concentrations 10^-7 M.
Where [6] appears, read: Table III (comparison with prior art), 10^-6 M inhibitor, jack bean urease, read-out: % Inhibition at Specific Inhibitor Concentrations 10^-6 M.

T1 sequence (P07374 whole entry, looked up): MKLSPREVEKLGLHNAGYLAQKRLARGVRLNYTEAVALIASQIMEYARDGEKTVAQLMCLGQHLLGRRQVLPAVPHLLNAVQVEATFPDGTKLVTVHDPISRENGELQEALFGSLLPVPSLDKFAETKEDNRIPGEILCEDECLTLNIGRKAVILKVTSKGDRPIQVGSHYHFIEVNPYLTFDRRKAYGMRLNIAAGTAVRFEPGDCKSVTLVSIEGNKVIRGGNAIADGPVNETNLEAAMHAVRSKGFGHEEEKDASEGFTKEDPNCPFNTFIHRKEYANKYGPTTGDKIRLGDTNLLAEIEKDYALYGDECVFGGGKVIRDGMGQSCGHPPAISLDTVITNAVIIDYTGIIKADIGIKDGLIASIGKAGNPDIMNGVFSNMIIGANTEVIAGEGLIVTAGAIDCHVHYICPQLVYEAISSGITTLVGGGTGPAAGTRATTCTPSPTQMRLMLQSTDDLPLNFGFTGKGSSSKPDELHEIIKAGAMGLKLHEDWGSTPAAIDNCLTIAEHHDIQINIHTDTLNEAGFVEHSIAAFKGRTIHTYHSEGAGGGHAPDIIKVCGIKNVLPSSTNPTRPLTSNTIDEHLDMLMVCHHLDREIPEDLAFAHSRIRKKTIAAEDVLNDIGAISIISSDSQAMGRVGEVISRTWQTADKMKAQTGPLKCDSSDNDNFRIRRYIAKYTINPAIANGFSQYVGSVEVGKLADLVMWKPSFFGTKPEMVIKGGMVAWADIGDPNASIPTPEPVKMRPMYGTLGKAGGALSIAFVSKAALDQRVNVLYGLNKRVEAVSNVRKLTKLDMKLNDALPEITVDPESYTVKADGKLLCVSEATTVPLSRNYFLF

For `NP(N)(=O)NC(=O)c1ccc(Cl)cc1` [N-(Diaminophosphinyl)-p-chlorobenzamide, N-(diaminophosphinyl)-p-chlorobenzamide, reference compound], in data set [1] (read-out: % Inhibition at Specific Inhibitor Concentrations 10^-6 M), the inhibition at 1 µM stood at 83%. Also, the inhibition at 0.1 µM in data set [1] (read-out: % Inhibition at Specific Inhibitor Concentrations 10^-7 M) worked out at 20%. Also, in data set [1], the inhibition at 0.01 µM came out at 14%.

The % Inhibition is the drop in the measured response relative to a control, in per cent. Low values mean a weak effect, high ones a strong effect. With `COc1ccc(C(=O)NP(N)(N)=O)cc1` [N-(Diaminophosphinyl)-4-methoxybenzamide, N-(diaminophosphinyl)-4-methoxybenzamide, reference compound], in the data set on soil nitrification, the “% Inhibition at 40 ug per gram of soil, t14 (Inhibition of Soil Nitrification)” value was 13% and the “% Inhibition at 40 ug per gram of soil, t0 (Inhibition of Soil Nitrification)” value came to 4%.

As for `NP(N)(=O)NC(=O)C(Cl)(Cl)Cl` [Example III, N-(Diaminophosphinyl)-2,2,2-trichloroacetamide], the inhibition at 1 µM in data set [1] (setting [3]) is 93 to 100%. The inhibition at 0.1 µM in data set [1] (setting [4]) came out at 70%; in data set [1] (setting [5]), 78%. In data set [1] (Table III (comparison with prior art), 10^-8 M inhibitor, jack bean urease), the inhibition at 0.01 µM is 13%. Besides, in the data set on soil nitrification, the “% Inhibition at 40 ug per gram of soil, t14 (Inhibition of Soil Nitrification)” value came to 3%. The “% Inhibition at 40 ug per gram of soil, t0 (Inhibition of Soil Nitrification)” value in the data set with soil nitrification worked out at 47%. Moreover, the “% Inhibition at 40 ug per gram of soil (Inhibition of Soil Urease)” value in the data set on soil urease turned out to be 64%.

For the compound `NP(N)(=O)NC(=O)C(Cl)Cl` [Example I, N-(Diaminophosphinyl)-2,2-dichloroacetamide], the inhibition at 1 µM in data set [1] (setting [3]) and in data set [1] (setting [6]) was 100% throughout. Besides, the values for the inhibition at 0.1 µM in data set [1] (setting [4]) and in data set [1] (setting [5]) were 80 to 100% and 100%, respectively. In the data set on soil nitrification, the “% Inhibition at 40 ug per gram of soil, t14 (Inhibition of Soil Nitrification)” value is 9%. Also, in the data set with soil nitrification, the “% Inhibition at 40 ug per gram of soil, t0 (Inhibition of Soil Nitrification)” value is 18%. Besides, in the data set with soil urease, the “% Inhibition at 40 ug per gram of soil (Inhibition of Soil Urease)” value turned out to be 73%.

In the case of `NP(N)(=O)NC(=O)C(F)(F)F` [IV, N-(Diaminophosphinyl)-2,2,2-trifluoroacetamide], the inhibition at 1 µM in data set [1] (setting [3]) is 100%. In data set [1] (setting [4]), the inhibition at 0.1 µM stood at 22%. Besides, the “% Inhibition at 40 ug per gram of soil (Inhibition of Soil Urease)” value in the data set on soil urease is given as 52%.

As to `N#CCC(=O)NP(N)(N)=O` [Example V, N-(Diaminophosphinyl)-2-Cyanoacetamide], the inhibition at 1 µM in data set [1] (setting [3]) was found to be 56%.

For the compound `NP(N)(=O)NC(=O)CCl` [Example II, N-(Diaminophosphinyl)-2-chloroacetamide], the Solubility in water entry in data set [2] is reported as “very soluble even in ice-cold water”. Moreover, the inhibition at 1 µM in data set [1] (setting [3]) and in data set [1] (setting [6]) was 100% each time. The inhibition at 0.1 µM in data set [1] (setting [4]) came out at 81%; in data set [1] (setting [5]) it was 50%. The “% Inhibition at 40 ug per gram of soil, t14 (Inhibition of Soil Nitrification)” value with soil nitrification is on record as 0%. The “% Inhibition at 40 ug per gram of soil, t0 (Inhibition of Soil Nitrification)” value in the data set on soil nitrification is listed as 2%. The “% Inhibition at 40 ug per gram of soil (Inhibition of Soil Urease)” value in the data set with soil urease came to 83%.
